Drawing on US11840517B2, “Lappaconitine derivative with analgesic activity, and preparation and application thereof” (priority 2021, dated 2023), this text covers inhibition in vivo for 34 molecules.

The subject of one assay is Kunming mice. Briefly: Analgesic activity by acetic acid-induced writhing method. Format: in vivo. The settings on record: Mus musculus, sc; Dosing concentration 3.5 mg/kg, subcutaneous, 15 min before i.p. 0.7% acetic acid; writhing inhibition vs blank group; read-out: Analgesia rate ± SEM (%). Here is the method:
The experimental animals were Kunming mice (male:female=1:1), weighed 22±2 g, which were provided by Chengdu dossy experimental animals Co., ltd., China. The mice were kept in the animal room of the School of Life Science and Engineering, Southwest Jiaotong University, where the animal room was set at a temperature of 23±2° C., a humidity of 55±5% and a photoperiod of 16:8 h (L:D). Before the experiment, the mice were freely fed for 2-3 days with water and feed to adapt to the new environment. Then, the mice were treated by water fasting for 12 h. 10 animals were allocated to each group to ensure that there are at least 6 sets of valid data in each group. The animal experiments were carried out in strict accordance with the national regulations on the management of experimental animals.
The compounds prepared in the examples provided herein and the positive control lappaconitine were all dissolved with 0.1 mol/L HCl according to the amount of the substance ratio of 1:1, and then diluted with physiological saline to a concentration to be determined. The samples to be tested were the compounds prepared the examples provided herein; the positive control was lappaconitine; and the blank control was physiological saline containing 0.1 mol/L HCl.
The animals in the control groups were subjected to the same treatment as those in the experimental group except that the samples to be test were replaced with physiological saline.
10 mice were randomly selected, male:female=1:1, were placed in independent cages. Each mouse was injected subcutaneously with the sample solution mentioned above at a dose of 0.1 mL/10 g body weight. After 15 min, a 0.7% acetic acid solution was intraperitoneally injected. The number of writhing reactions in each mouse within 15 minutes was recorded. The group that the mice were injected with physiological saline subcutaneously was the blank group; the group that the mice were injected with the sample to be tested was the experimental group; and the group that the mice were injected with lappaconitine was the positive group. The analgesic activity was represented by a percentage of the reduced number of writhing compared to the blank group (writhing inhibition rate), which were specifically as follows: writhing inhibition rate (analgesic activity)=(average number of writhing times in the blank group-average number of writhing times in the experimental group)/average number of writhing times in the blank group×100%.
`CCN1C[C@]2(OC(=O)c3ccccc3NS(=O)(=O)c3cccc(OC)c3)CC[C@H](OC)[C@@]34C2CC([C@@H]13)[C@@]1(O)C[C@H](OC)[C@H]2CC4[C@]1(O)[C@H]2OC` (stereo partly shown) [Compound 13]: the inhibition in vivo at 3.5 mg/kg is 37.1 ± 15.7%.
Turning to `CCN1C[C@]2(OC(=O)c3ccccc3NS(=O)(=O)c3ccc(C)cc3)CC[C@H](OC)[C@@]34C2CC([C@@H]13)[C@@]1(O)C[C@H](OC)[C@H]2CC4[C@]1(O)[C@H]2OC` (stereo partly shown) [Compound 15], the inhibition in vivo at 3.5 mg/kg was 27.7 ± 12.9%.
Turning to `CCN1C[C@]2(OC(=O)c3ccccc3NS(=O)(=O)c3ccc(OC)cc3)CC[C@H](OC)[C@@]34C2CC([C@@H]13)[C@@]1(O)C[C@H](OC)[C@H]2CC4[C@]1(O)[C@H]2OC` (stereo partly shown) [Compound 20], the inhibition in vivo at 3.5 mg/kg is 16.8 ± 6.09%.
With `CCN1C[C@]2(OC(=O)c3ccccc3NS(=O)(=O)c3ccc(F)cc3)CC[C@H](OC)C34C2CC([C@@H]13)[C@@]1(O)C[C@H](OC)[C@H]2CC4[C@]1(O)[C@H]2OC` (stereo partly shown) [Compound 23], the inhibition in vivo at 3.5 mg/kg turned out to be 14.7 ± 13.2%.

Still in this assay, the particulars now being: Mus musculus, sc; Dosing concentration 5 mg/kg, subcutaneous, 15 min before i.p. 0.7% acetic acid; writhing inhibition vs blank group; read-out: Analgesia rate ± SEM (%).
Take `CCN1C[C@]2(OC(=O)c3ccccc3NC(=O)C3CC3)CC[C@H](OC)C3C2C[C@@H]([C@@H]1C)[C@@]1(O)CC(OC)[C@H]2CC3[C@]1(O)[C@H]2OC` (stereo partly shown) [Compound 39]: the inhibition in vivo at 5 mg/kg stood at 33.5 ± 7.27%.

The assay is the same for the next values; noted with them: Mus musculus, sc; Dosing concentration 10 mg/kg, subcutaneous, 15 min before i.p. 0.7% acetic acid; writhing inhibition vs blank group; read-out: Analgesia rate ± SEM (%).
With `CCN1C[C@]2(OC(=O)c3ccccc3NS(=O)(=O)c3ccccc3F)CC[C@H](OC)[C@@]34C2CC([C@@H]13)[C@@]1(O)C[C@H](OC)[C@H]2CC4[C@]1(O)[C@H]2OC` (stereo partly shown) [Compound 6], the inhibition in vivo at 10 mg/kg is 60.3 ± 5.94%.
With `CCN1C[C@]2(OC(=O)c3ccccc3NS(=O)(=O)c3cccc(F)c3)CC[C@H](OC)[C@@]34C2CC([C@@H]13)[C@@]1(O)C[C@H](OC)[C@H]2CC4[C@]1(O)[C@H]2OC` (stereo partly shown) [Compound 7], the inhibition in vivo at 10 mg/kg was 50.2 ± 6.85%.
For `CCN1C[C@]2(OC(=O)c3ccccc3NS(=O)(=O)c3cccc4ccccc34)CC[C@H](OC)[C@@]34C2CC([C@@H]13)[C@@]1(O)C[C@H](OC)[C@H]2CC4[C@]1(O)[C@H]2OC` (stereo partly shown) [Compound 8], the inhibition in vivo at 10 mg/kg turned out to be 49.2 ± 5%.
Same read-out and setting: to `CCN1C[C@]2(OC(=O)c3ccccc3NS(=O)(=O)Cc3ccccc3)CC[C@H](OC)[C@@]34C2CC([C@@H]13)[C@@]1(O)C[C@H](OC)[C@H]2CC4[C@]1(O)[C@H]2OC` (stereo partly shown) [Compound 9] belongs 43.8 ± 4.5%; to `CCN1C[C@]2(OC(=O)c3ccccc3NS(=O)(=O)c3cccc4c(N(C)C)cccc34)CC[C@H](OC)[C@@]34C2CC([C@@H]13)[C@@]1(O)C[C@H](OC)[C@H]2CC4[C@]1(O)[C@H]2OC` (stereo partly shown) [Compound 10], 42.5 ± 2.56%.
Take `CCN1C[C@]2(OC(=O)c3ccccc3NS(=O)(=O)Cc3ccc([N+](=O)[O-])cc3)CC[C@H](OC)[C@@]34C2CC([C@@H]13)[C@@]1(O)C[C@H](OC)[C@H]2CC4[C@]1(O)[C@H]2OC` (stereo partly shown) [Compound 11]: the inhibition in vivo at 10 mg/kg stood at 42.4 ± 5.98%.
On to `CCN1C[C@]2(OC(=O)c3ccccc3NS(=O)(=O)c3cccc4cccnc34)CC[C@H](OC)[C@@]34C2CC([C@@H]13)[C@@]1(O)C[C@H](OC)[C@H]2CC4[C@]1(O)[C@H]2OC` (stereo partly shown) [Compound 12], for which the inhibition in vivo at 10 mg/kg came to 41.9 ± 3.8%.
`CCN1C[C@]2(OC(=O)c3ccccc3NC(=O)OC(C)C)CC[C@H](OC)[C@@]34C2CC([C@@H]13)[C@@]1(O)C[C@H](OC)[C@H]2CC4[C@]1(O)[C@H]2OC` (stereo partly shown) [Compound 14]: the inhibition in vivo at 10 mg/kg was determined as 28.4 ± 4.98%.
For the molecule `C/C=C/S(=O)(=O)Nc1ccccc1C(=O)O[C@@]12CC[C@H](OC)[C@@]34C1CC([C@H]3N(CC)C2)[C@@]1(O)C[C@H](OC)[C@H]2CC4[C@]1(O)[C@H]2OC` (stereo partly shown) [Compound 16], the inhibition in vivo at 10 mg/kg was found to be 24.4 ± 8.46%.
For `CCN1C[C@]2(OC(=O)c3ccccc3NS(C)(=O)=O)CC[C@H](OC)[C@@]34C2CC([C@@H]13)[C@@]1(O)C[C@H](OC)[C@H]2CC4[C@]1(O)[C@H]2OC` (stereo partly shown) [Compound 17], the inhibition in vivo at 10 mg/kg amounted to 22.8 ± 7.58%.
In the case of `CCN1C[C@]2(OC(=O)c3ccccc3NC(=O)NC)CC[C@H](OC)[C@@]34C2CC([C@@H]13)[C@@]1(O)C[C@H](OC)[C@H]2CC4[C@]1(O)[C@H]2OC` (stereo partly shown) [Compound 18], the inhibition in vivo at 10 mg/kg worked out at 20 ± 6.67%.
With `CCN1C[C@]2(OC(=O)c3ccccc3NS(=O)(=O)c3ccc(C(F)(F)F)cc3)CC[C@H](OC)[C@@]34C2CC([C@@H]13)[C@@]1(O)C[C@H](OC)[C@H]2CC4[C@]1(O)[C@H]2OC` (stereo partly shown) [Compound 19], the inhibition in vivo at 10 mg/kg is 19.4 ± 5%.
`CCOC(=O)Nc1ccccc1C(=O)O[C@@]12CC[C@H](OC)C34C1CC([C@H]3N(CC)C2)[C@@]1(O)C[C@H](OC)[C@H]2CC4[C@]1(O)[C@H]2OC` (stereo partly shown) [Compound 21]: the inhibition in vivo at 10 mg/kg is 16.4 ± 11.5%.
For `CCN1C[C@]2(OC(=O)c3ccccc3NS(=O)(=O)c3ccc(-c4ccccc4)cc3)CC[C@H](OC)C34C2CC([C@@H]13)[C@@]1(O)C[C@H](OC)[C@H]2CC4[C@]1(O)[C@H]2OC` (stereo partly shown) [Compound 22], the inhibition in vivo at 10 mg/kg stood at 16.1 ± 10.6%.
In the case of `C=CCOC(=O)Nc1ccccc1C(=O)O[C@@]12CC[C@H](OC)C34C1CC([C@H]3N(CC)C2)[C@@]1(O)C[C@H](OC)[C@H]2CC4[C@]1(O)[C@H]2OC` (stereo partly shown) [Compound 24], the inhibition in vivo at 10 mg/kg came out at 13.3 ± 9%.
The same measure, in the same setting: to `CCN1C[C@]2(OC(=O)c3ccccc3NS(=O)(=O)c3ccc(Cl)cc3)CC[C@H](OC)C34C2CC([C@@H]13)[C@@]1(O)C[C@H](OC)[C@H]2CC4[C@]1(O)[C@H]2OC` (stereo partly shown) [Compound 25] belongs 11.7 ± 7.78%; to `CCN1C[C@]2(OC(=O)c3ccccc3NS(=O)(=O)c3ccc(Br)cc3)CC[C@H](OC)C34C2CC([C@@H]13)[C@@]1(O)C[C@H](OC)[C@H]2CC4[C@]1(O)[C@H]2OC` (stereo partly shown) [Compound 26], 11.4 ± 7.58%.
Regarding `CCN1C[C@]2(OC(=O)c3ccccc3NS(=O)(=O)CC)CC[C@H](OC)C34C2CC([C@@H]13)[C@@]1(O)C[C@H](OC)[C@H]2CC4[C@]1(O)[C@H]2OC` (stereo partly shown) [Compound 27], the inhibition in vivo at 10 mg/kg is 4.02 ± 9.5%.
For the molecule `CCN1C[C@]2(OC(=O)c3ccccc3NS(=O)(=O)Oc3ccccc3)CC[C@H](OC)C34C2CC([C@@H]13)[C@@]1(O)C[C@H](OC)[C@H]2CC4[C@]1(O)[C@H]2OC` (stereo partly shown) [Compound 28], the inhibition in vivo at 10 mg/kg worked out at 1.03 ± 10.3%.
On the same count and under the same terms, next, `CCN1C[C@]2(OC(=O)c3ccccc3NS(=O)(=O)c3cccs3)CC[C@H](OC)C34C2CC([C@@H]13)[C@@]1(O)C[C@H](OC)[C@H]2CC4[C@]1(O)[C@H]2OC` (stereo partly shown) [Compound 29]: 1.03 ± 5.37%.
Turning to `CCN1C[C@]2(OC(=O)c3ccccc3NC(=O)C3CCCC3)CC[C@H](OC)C34C2CC([C@@H]13)[C@@]1(O)C[C@H](OC)[C@H]2CC4[C@]1(O)[C@H]2OC` (stereo partly shown) [Compound 33], the inhibition in vivo at 10 mg/kg was 56.9 ± 3.82%.
Turning to `CCCCCCC(=O)Nc1ccccc1C(=O)O[C@@]12CC[C@H](OC)C34C1CC([C@H]3N(CC)C2)[C@@]1(O)C[C@H](OC)[C@H]2CC4[C@]1(O)[C@H]2OC` (stereo partly shown) [Compound 34], the inhibition in vivo at 10 mg/kg turned out to be 54.2 ± 6.15%.
Regarding `CCCOc1ccc(C(=O)Nc2ccccc2C(=O)O[C@@]23CC[C@H](OC)C45C2CC([C@H]4N(CC)C3)[C@@]2(O)C[C@H](OC)[C@H]3CC5[C@]2(O)[C@H]3OC)cc1` (stereo partly shown) [Compound 35], the inhibition in vivo at 10 mg/kg is 48.4 ± 6.08%.
Take `CCN1C[C@]2(OC(=O)c3ccccc3NC(=O)c3ccc(C(=O)OC)cc3)CC[C@H](OC)C3C2C[C@@H]([C@@H]1C)[C@@]1(O)CC(OC)[C@H]2CC3[C@]1(O)[C@H]2OC` (stereo partly shown) [Compound 36]: the inhibition in vivo at 10 mg/kg was 36.4 ± 9.54%.
Regarding `CCN1C[C@]2(OC(=O)c3ccccc3NC(=O)C3CCCCC3)CC[C@H](OC)C3C2C[C@@H]([C@@H]1C)[C@@]1(O)CC(OC)[C@H]2CC3[C@]1(O)[C@H]2OC` (stereo partly shown) [Compound 37], the inhibition in vivo at 10 mg/kg turned out to be 34.5 ± 4.68%.
The same measure, in the same setting: to `CCN1C[C@]2(OC(=O)c3ccccc3NC(=O)C3CCOC3)CC[C@H](OC)C3C2C[C@@H]([C@@H]1C)[C@@]1(O)CC(OC)[C@H]2CC3[C@]1(O)[C@H]2OC` (stereo partly shown) [Compound 38] belongs 34 ± 8.92%; to `CCN1C[C@]2(OC(=O)c3ccccc3NC(=O)c3ccc(Cl)cc3)CC[C@H](OC)C3C2C[C@@H]([C@@H]1C)[C@@]1(O)CC(OC)[C@H]2CC3[C@]1(O)[C@H]2OC` (stereo partly shown) [Compound 40], 31.6 ± 12.6%; to `CCN1C[C@]2(OC(=O)c3ccccc3NC(=O)c3cnc(Cl)cn3)CC[C@H](OC)C3C2C[C@@H]([C@@H]1C)[C@@]1(O)CC(OC)[C@H]2CC3[C@]1(O)[C@H]2OC` (stereo partly shown) [Compound 41], 31.5 ± 8.19%.
For the molecule `CCCC(C)C(=O)Nc1ccccc1C(=O)O[C@@]12CC[C@H](OC)C3C1C[C@@H]([C@H](C)N(CC)C2)[C@@]1(O)CC(OC)[C@H]2CC3[C@]1(O)[C@H]2OC` (stereo partly shown) [Compound 42], the inhibition in vivo at 10 mg/kg worked out at 31.3 ± 10.7%.
